Data as given in US20250382256A1, “DICARBOXYLIC ACID DIESTERS” (DSM IP Assets B.V., priority 2018, published 2025).
Structures can show the parent of a compound that is named as a salt. Where two headings read alike, the source gives them in different places.

Legend:
[1] = Vapor pressure of the purified diester; format: physicochemical; settings: purified product
rumen liquor = test: In vitro test for methane production (modified Hohenheim Forage value Test, HFT); format: cell-based; settings: read-out: Methane inhibition
Protocol: A modified version of the “Hohenheim Forage value Test (HFT)” was used for testing the effect of specific compounds on the rumen functions mimicked by this in-vitro system. Principle: Feed (i.e. a TMR) (300 mg) is given into a syringe with a composition of rumen liquor and an appropriate mixture of buffers (i.e. rumen-fluid buffer mix: 25 ml) and the substances to be tested in the concentrations as outlined in table 2 (the inhibitors to be tested are diluted in ethanol to reach the respective concentration of dry matter in 50 μl). The solution is incubated at 39° C. for 8 h. The quantity of produced gas is measured and put into a formula for conversion. After the incubation the composition of gas is measured with a GC. TMR (44% concentrate, 6% hay, 37% maize silage and 13% grass silage) is sieved to 1 mm and weighed exactly into the syringes. One run contains 4 repetitions, each with 16 syringes and comprises substrate controls, which display the gas production without the effect of the tested compounds, carrier controls, which display the gas production in the presence of the carrier (solvent) only (i.e. EtOH used to dissolve the test compounds), and test samples (in the carrier), which contain the test substances in varying concentrations as outlined in table 2. The components are mixed in a Woulff bottle in following order: • 711 ml water • 0.18 ml trace element solution • 355.5 ml buffer solution • 355.5 ml mass element solution The completed solution is warmed up to 39° C. followed by the addition of 1.83 ml sodium salt solution and the addition of reduction solution at 36° C. The rumen liquor (750 ml) is added, when the indicator turns colorless under continued agitation and CO2-gassing. The rumen-fluid-buffer-mix is added to the glass syringe prepared as outlined above containing the TMR and the active to be tested. The syringes are then incubated for 8 hours at 39° C. under gentle agitation. After 8 the volume of gas produced is measured, and the percentage of methane in the gas phase is determined by gas chromatography.

`O=C(CC(=O)OCCCO[N+](=O)[O-])OCCCO[N+](=O)[O-]` [(I-a), bis(3-(nitrooxy)propyl) malonate] gave a vapor pressure [1] of 0.00133 mbar, an inhibition at 2.5 µM (rumen liquor; 8 h) of 72% and an inhibition at 5 µM (rumen liquor; 8 h) of 97%. For the same compound, the inhibition at 10 µM (rumen liquor; 8 h) was 99%.

Compound `O=C(/C=C/C(=O)OCCCO[N+](=O)[O-])OCCCO[N+](=O)[O-]` [(I-b), bis(3-(nitrooxy)propyl) fumarate] has a vapor pressure [1] of 0.00133 mbar, an inhibition at 5 µM (rumen liquor; 8 h) of 96% and an inhibition at 10 µM (rumen liquor; 8 h) of 99%.

`O=C(CCC(=O)OCCCO[N+](=O)[O-])OCCCO[N+](=O)[O-]` [(I-c), bis(3-(nitrooxy)propyl) succinate] gave a vapor pressure [1] of 0.00133 mbar and an inhibition at 10 µM (rumen liquor; 8 h) of 99%.

Compound `O=[N+]([O-])OCCCO` [Ref, 3-nitrooxypropanol, reference compound] has an inhibition at 2.5 µM (rumen liquor; 2.5 μmol/l, 8 h at 39° C., TMR in rumen-fluid buffer mix, reduction versus substrate control) of 32%, an inhibition at 5 µM (rumen liquor; 5 μmol/l, 8 h at 39° C., TMR in rumen-fluid buffer mix, reduction versus substrate control) of 86% and an inhibition at 10 µM (rumen liquor; 10 μmol/l, 8 h at 39° C., TMR in rumen-fluid buffer mix, reduction versus substrate control) of 99%.
